Values joined by “and” are separate entries in the source; they are usually repeats but may differ in a detail not shown here. Equal entries are not always repeated. After the bases stand the sugars from the 5' end (letter, count) and the backbone: PS all phosphorothioate, else s phosphorothioate and o phosphodiester by linkage. Methylation of C is not given here. e = 2'-O-(2-methoxyethyl) (MOE); k = constrained ethyl (cEt); d = 2'-deoxy (DNA)
Experiments:
[1] = molecular target: SOD1; conditions: ASO
[2] = molecular target: APOL1; conditions: ASO

Sequence | target mRNA inhibition ([2]; A431, 0.0625 µM) | target mRNA inhibition ([2]; A431, 0.25 µM) | target mRNA inhibition ([2]; A431, 1 µM) | target mRNA inhibition ([2]; A431, 2 µM) [%] | also measured
CAGCAGTCACATTGCCC (sugars e3 k2 d7 k2 e3, PS) | – | – | – | – | target mRNA inhibition ([1]; HepG2, 3 µM): 7%
GAATGACAAAGAAATTCTGA (sugars e5 d10 e5, PS) | – | – | – | – | target mRNA inhibition ([1]; HepG2, 5 µM): 0%
GGGCGATCCCAATTACA (sugars e2 k2 d8 k2 e3, PS) | – | – | – | – | target mRNA inhibition ([1]; HepG2, 4 µM): 30%
TTCTGCTCGAAATTGAT (sugars e3 k2 d7 k2 e3, PS) | – | – | – | – | target mRNA inhibition ([1]; HepG2, 3 µM): 18%
GAGGATTAAAGTGAGGA (sugars e3 k2 d7 k2 e3, PS) | – | – | – | – | target mRNA inhibition ([1]; HepG2, 3 µM): 40%
CCAATTACACCACAAGC (sugars e2 k2 d9 k2 e2, PS) | – | – | – | – | target mRNA inhibition ([1]; HepG2, 0.1875 µM): 7%; target mRNA inhibition ([1]; HepG2, 0.75 µM): 32%; target mRNA inhibition ([1]; HepG2, 3 µM): 77%; target mRNA inhibition ([1]; HepG2, 4 µM): 73%; target mRNA inhibition ([1]; HepG2, 12 µM): 96%
AGACTACATCCAAGGGA (sugars e2 k2 d8 k2 e3, PS) | – | – | – | – | target mRNA inhibition ([1]; HepG2, 4 µM): 53%
ACAGGTCATTGAAACAG (sugars e3 k2 d7 k2 e3, PS) | – | – | – | – | target mRNA inhibition ([1]; HepG2, 3 µM): 14%
CAGTGTTTAATGTTTAT (sugars e2 k2 d8 k2 e3, PS) | – | – | – | – | target mRNA inhibition ([1]; HepG2, 0.1875 µM): 30%; target mRNA inhibition ([1]; HepG2, 0.75 µM): 61%; target mRNA inhibition ([1]; HepG2, 3 µM): 79%; target mRNA inhibition ([1]; HepG2, 4 µM): 75%; target mRNA inhibition ([1]; HepG2, 5 µM): 77%; target mRNA inhibition ([1]; HepG2, 12 µM): 81% and 87%
GACCACCAGTGTGCGGCCAA (sugars e5 d10 e5, PS) | – | – | – | – | target mRNA inhibition ([1]; HepG2, 5 µM): 16%
TCAGCTATGGAAATGC (sugars k4 d9 k3, PS) | 45% | 78% | 92% | – | –
TAAGTGCTTTGATTCG (sugars k4 d9 k3, PS) | 64% and 82% | 87% and 92% | 94% and 96% | – | –
TTATACCAGTGTCTTC (sugars kdddddkekekddddd, PS) | – | – | – | 82 | –
CACATCATTGGGTTAT (sugars k3 d4 k3 e1 d5, PS) | – | – | – | 78 | –
TGTTATATTTGATCCT (sugars kkkddddkdkdkdddd, PS) | – | – | – | 66 | –
ACGCAATGCTGACTTG (sugars kkddddkdkdkddddd, PS) | – | – | – | 85 | –
CCGTCAATATATTCTT (sugars k2 d4 e3 k2 d5, PS) | 61% | 86% | 96% | 98 | target mRNA inhibition ([2]; A431, 0.0156 µM): 28%; target mRNA inhibition ([2]; A431, 0.04 µM): 50%
GAGTCATTAGTGCTAT (sugars k4 d9 k3, PS) | 53% | 77% | 85% | – | –
GGGTTATGAAATTATT (sugars kkddddekekeddddd, PS) | – | – | – | 88 | –
CACATCATTGGGTTAT (sugars k2 d4 e4 k2 d4, PS) | – | – | – | 54 | –
TGGGAATTATGGAATT (sugars kkddddkekekddddd, PS) | – | – | – | 87 | –
TCAGATGGGTACTTCT (sugars k4 d9 k3, PS) | 38% | 66% | 83% | – | –
GAAATGAACGCAATGC (sugars k4 d9 k3, PS) | 42% | 71% | 87% | – | –
TCAGCTAAGACCAGTG (sugars k4 d9 k3, PS) | 53% | 78% | 89% | – | –
GGGAATTATGGAATTG (sugars k4 d9 k3, PS) | 48% and 59% | 70% and 67% | 80% and 77% | – | –
TATTTCTTGATGTGGT (sugars kkddddkdkdkddddd, PS) | 71% | 91% | 96% | 97 | target mRNA inhibition ([2]; A431, 0.0156 µM): 40%

Sequence | target mRNA inhibition ([2]; A431, 0.0625 µM) | target mRNA inhibition ([2]; A431, 0.25 µM) | target mRNA inhibition ([2]; A431, 1 µM) | target mRNA inhibition ([2]; A431, 2 µM) [%] | also measured
TTGATGAGTAGGTGAG (sugars k4 d9 k3, PS) | 72% | 81% | 85% | – | –
TTATATTTGATCCTCA (sugars kddddkekekeddddd, PS) | – | – | – | 39 | –
TGTATTTCTTGATGTG (sugars k2 d4 e3 k2 d5, PS) | – | – | – | 87 | –
TTTGTAAGTGCAACCA (sugars k4 d9 k3, PS) | 70% | 91% | 97% and 96% and 93% | – | target mRNA inhibition ([2]; A431, 0.04 µM): 37% and 23%
GAATTATGGAATTGCA (sugars k4 d9 k3, PS) | 59% | 82% | 92% | – | –
TGTTATATTTGATCCT (sugars k2 d4 e3 k2 d5, PS) | – | – | – | 87 | –
TCTATTAGAGGGCTAG (sugars kkddddkekekddddd, PS) | – | – | – | 52 | –
TATATTTGATCCTCAA (sugars kddddkekekeddddd, PS) | – | – | – | 75 | –
TTTTGTAAGTGCAACC (sugars k2 d4 e3 k2 d5, PS) | – | – | – | 99 | –
GTTCAAAAGCAGCATT (sugars k3 d4 k3 e1 d5, PS) | – | – | – | 80 | –
ACGCAATGCTGACTTG (sugars kkdddddkekeddddd, PS) | – | – | – | 89 | –
TGGTTCAAAAGCAGCA (sugars kkddddekekeddddd, PS) | – | – | – | 82 | –
AGCTTTAAACTCAGGT (sugars kkddddekekeddddd, PS) | – | – | – | 92 | –
CAAGGCTTTTGATGAC (sugars k4 d9 k3, PS) | 28% | 58% | 75% | – | –
TTGTAAGTGCAACCAA (sugars kkkddddkekekdddd, PS) | – | – | – | 35 | –
TTATGAAATTATTGGT (sugars k2 d4 e4 k2 d4, PS) | – | – | – | 35 | –
TTCTATTAGAGGGCTA (sugars kkddddkdkdkddddd, PS) | – | – | – | 87 | –
TAAGTATTGCCAGCTA (sugars kkkddddkekeddddd, PS) | – | – | – | 78 | –
ATCAGATGGGTACTTC (sugars kkdddddkekeddddd, PS) | – | – | – | 83 | –
GTTTTATGGAGTCATT (sugars k4 d9 k3, PS) | 51% and 34% | 78% and 70% | 92% and 84% | – | –
TTCTATTAGAGGGCTA (sugars kddddkekekeddddd, PS) | – | – | – | 34 | –
CTAATTTTCTGACTGT (sugars kkddddkdkdkddddd, PS) | – | – | – | 84 | –
GCTTTAAACTCAGGTG (sugars kkkddddkekeddddd, PS) | – | – | – | 82 | –
ACACATCATTGGGTTA (sugars kkddddekekeddddd, PS) | – | – | – | 64 | –
CTGTGATGTGGGACTT (sugars k4 d9 k3, PS) | 50% | 76% | 89% | – | –
CATTCAGAATTTCCAC (sugars kddddkekekeddddd, PS) | – | – | – | 58 | –

Sequence | target mRNA inhibition ([2]; A431, 0.0625 µM) | target mRNA inhibition ([2]; A431, 0.25 µM) | target mRNA inhibition ([2]; A431, 1 µM) | target mRNA inhibition ([2]; A431, 2 µM) [%] | also measured
GGTTCAAAAGCAGCAT (sugars kkkddddkekeddddd, PS) | – | – | – | 70 | –
TCATCATAGATACTCC (sugars k4 d9 k3, PS) | 33% | 67% | 84% | – | –
AGTATTGCCAGCTAAG (sugars kkddddkdkdkddddd, PS) | – | – | – | 69 | –
AGCTTTAAACTCAGGT (sugars kkkddddkdkdkdddd, PS) | – | – | – | 74 | –
TCCGTTCCAGGCCTCA (sugars k4 d9 k3, PS) | 29% | 44% | 58% | – | –
GCAGTTTCATATTCAC (sugars k4 d9 k3, PS) | 75% | 92% | 98% | – | –
GAGTATTGTTTTTGTG (sugars kekddddeekkddddd, PS) | – | – | – | 90 | –
GGTTGTCCAGAGCTTT (sugars k4 d9 k3, PS) | 100% | 84% | 91% | – | –
AGCTTTAAACTCAGGT (sugars kkddddkekekddddd, PS) | – | – | – | 87 | –
CACTTTATACCAGTGT (sugars kkddddkekekddddd, PS) | – | – | – | 14 | –
TTGTAAGTGCAACCAA (sugars kkddddekekeddddd, PS) | – | – | – | 87 | –
TTCAGAATTTCCACTA (sugars k4 d9 k3, PS) | 40% | 67% | 87% | – | –
GTTATATTTGATCCTC (sugars kdddddkekekddddd, PS) | 56% | 78% | 92% | 95 | target mRNA inhibition ([2]; A431, 0.0156 µM): 26%
TCTATTAGAGGGCTAG (sugars k3 d4 k3 e1 d5, PS) | – | – | – | 51 | –
TGTAAGTGCAACCAAT (sugars kdddddkekekddddd, PS) | – | – | – | 81 | –
GAGTATTGTTTTTGTG (sugars kkddddekekeddddd, PS) | 78% | 92% | 97% | 98 | target mRNA inhibition ([2]; A431, 0.0156 µM): 40%; target mRNA inhibition ([2]; A431, 0.04 µM): 47% and 50%
GTTTTGTAAGTGCAAC (sugars kkddddekekeddddd, PS) | – | – | – | 86 | –
TGGTTCAAAAGCAGCA (sugars kkddddkekekddddd, PS) | – | – | – | 68 | –
GTTTTGTAAGTGCAAC (sugars k2 d4 e3 k2 d5, PS) | – | – | – | 83 | –
CAGTTTTGTAAGTGCA (sugars kdddddkekekddddd, PS) | 52% | 79% | 91% | 92 | target mRNA inhibition ([2]; A431, 0.0156 µM): 0%
TTGTAAGTGCAACCAA (sugars kkddddkekekkdddd, PS) | – | – | – | 54 | –
GTTTACTTACCGGGTA (sugars k4 d9 k3, PS) | 47% and 38% | – | 84% and 63% | – | –
GTTCTAACTCTTGGGC (sugars kdddddkekekddddd, PS) | – | – | – | 28 | –
AGATGTGTTTAGGCAT (sugars k4 d9 k3, PS) | 54% | 85% | 95% | – | –

— the OligoGym collection
